Experimental findings from US11332459B2 (TEIJIN PHARMA LIMITED, priority 2017, dated 2022) are described below.

For the assay, the target named is T1, human TRPC6 (Homo sapiens, UniProt Q9Y210).
T1 construct: expressed in transfected cells
T1 sequence (Q9Y210 1-931): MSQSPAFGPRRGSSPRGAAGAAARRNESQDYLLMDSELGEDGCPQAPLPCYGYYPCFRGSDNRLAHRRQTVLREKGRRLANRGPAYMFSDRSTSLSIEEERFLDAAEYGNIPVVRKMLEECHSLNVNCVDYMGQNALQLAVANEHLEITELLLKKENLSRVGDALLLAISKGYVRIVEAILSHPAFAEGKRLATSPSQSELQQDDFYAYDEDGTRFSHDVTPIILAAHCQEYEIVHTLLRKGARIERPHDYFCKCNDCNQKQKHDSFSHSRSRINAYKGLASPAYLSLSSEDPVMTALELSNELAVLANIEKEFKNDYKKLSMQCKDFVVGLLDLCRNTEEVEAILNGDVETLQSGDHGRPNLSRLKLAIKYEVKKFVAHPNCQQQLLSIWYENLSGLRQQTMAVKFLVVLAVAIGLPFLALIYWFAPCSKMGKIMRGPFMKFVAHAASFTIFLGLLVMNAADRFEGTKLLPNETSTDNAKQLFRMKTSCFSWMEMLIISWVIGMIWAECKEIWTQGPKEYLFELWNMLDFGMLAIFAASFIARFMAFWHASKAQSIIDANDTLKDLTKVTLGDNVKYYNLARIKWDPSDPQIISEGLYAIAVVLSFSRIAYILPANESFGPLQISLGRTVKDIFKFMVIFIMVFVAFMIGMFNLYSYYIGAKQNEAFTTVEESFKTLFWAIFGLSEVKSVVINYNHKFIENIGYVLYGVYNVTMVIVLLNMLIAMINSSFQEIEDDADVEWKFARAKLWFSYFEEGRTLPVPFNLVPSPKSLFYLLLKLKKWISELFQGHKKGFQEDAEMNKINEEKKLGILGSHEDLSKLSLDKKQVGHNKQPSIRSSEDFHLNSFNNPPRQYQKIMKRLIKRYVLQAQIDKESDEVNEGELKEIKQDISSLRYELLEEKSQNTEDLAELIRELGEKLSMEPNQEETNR
As to the kind of experiment: TRPC6 calcium flux assay (FLIPR, OAG-stimulated calcium influx). The format is cell-based. The settings on record: HEK293 cells stably transfected with human TRPC6, read-out: hTRPC6 Potency. The essentials:
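IC50 derived by plotting background-corrected peak fluorescence (180 s window, normalized to OAG-triggered signal vs buffer) against dose. Stable human TRPC6 HEK293 line was dye-loaded, exposed to compound 25 min, then challenged with 50 uM final OAG in 2 mM Ca2+ HEPES buffer pH 7.2, 0.5% DMSO.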
For orientation: Calcium assays in cells follow changes in intracellular calcium, usually with a dye or a luminescent sensor.

Counter-ions that a name gives are not always drawn.

For the compound `N#Cc1ccc2c(c1)nc(N1CC[C@H](F)[C@H](N)C1)n2Cc1ncc(Cl)cn1` [Example 204, 2-((3R,4S)-3-amino-4-fluoropiperidin-1-yl)-1-((5-chloropyrimidin-2-yl)methyl)-1H-benzo[d]imidazole-5-carbonitrile], the IC50 was 4.92 nM.
In the case of `N[C@@H]1CN(c2nc3ccc(F)cc3n2Cc2ncc(Cl)cn2)CC[C@H]1O` [Example 205, (3R,4R)-3-amino-1-(1-((5-chloropyrimidin-2-yl)methyl)-6-fluoro-1H-benzo[d]imidazol-2-yl)piperidin-4-ol], the IC50 worked out at 3 nM.
Under `N[C@@H]1CN(c2nc3cc(F)ccc3n2Cc2ncc(Cl)cn2)CC[C@H]1O` [Example 206, (3R,4R)-3-amino-1-(1-((5-chloropyrimidin-2-yl)methyl)-5-fluoro-1H-benzo[d]imidazol-2-yl)piperidin-4-ol] stands 12.3 nM.
Under `N#Cc1ccc(Cn2c(N3CC[C@@H](O)[C@H](N)C3)nc3ccc(F)cc32)nc1` [Example 207, 6-((2-((3R,4R)-3-amino-4-hydroxypiperidin-1-yl)-6-fluoro-1H-benzo[d]imidazol-1-yl)methyl)nicotinonitrile] stands 49.6 nM; under `N#Cc1ccc(Cn2c(N3CC[C@@H](O)[C@H](N)C3)nc3cc(F)ccc32)nc1` [Example 208, 6-((2-((3R,4R)-3-amino-4-hydroxypiperidin-1-yl)-5-fluoro-1H-benzo[d]imidazol-1-yl)methyl)nicotinonitrile], 47.7 nM.
On to `N[C@H]1CCCN(c2nc3ccccc3n2Cc2ccc(Cl)cn2)C1` [Example 209, (S)-1-(1-((5-chloropyridin-2-yl)methyl)-1H-benzo[d]imidazol-2-yl)piperidin-3-amine], for which the IC50 came to 3.87 nM.
For the compound `N#Cc1ccc(Cn2c(N3CCC[C@H](N)C3)nc3ccccc32)cn1` [Example 210, (S)-5-((2-(3-aminopiperidin-1-yl)-1H-benzo[d]imidazol-1-yl)methyl)picolinonitrile], the IC50 turned out to be 69.1 nM.
Then `N[C@@H]1CN(c2nc3ccccc3n2Cc2ccc(Cl)cn2)CC[C@H]1F` [Example 211, (3R,4R)-1-(1-((5-chloropyridin-2-yl)methyl)-1H-benzo[d]imidazol-2-yl)-4-fluoropiperidin-3-amine hydrochloride], with 1.09 nM; and `N#Cc1ccc(Cn2c(N3CCC(F)(F)[C@H](N)C3)nc3ccccc32)nc1` [Example 212, (R)-6-((2-(3-amino-4,4-difluoropiperidin-1-yl)-1H-benzo[d]imidazol-1-yl)methyl)nicotinonitrile hydrochloride], with 3.5 nM; and `C[C@H](c1ccc(Cl)cn1)n1c(N2CC[C@@H](F)[C@H](N)C2)nc2ccccc21` [Example 215, (3R,4R)-1-(1-((R)-1-(5-chloropyridin-2-yl)ethyl)-1H-benzo[d]imidazol-2-yl)-4-fluoropiperidin-3-amine hydrochloride], with 593 nM.
As for `C[C@@H](c1ccc(Cl)cn1)n1c(N2CC[C@@H](F)[C@H](N)C2)nc2ccccc21` [Example 216, (3R,4R)-1-(1-((S)-1-(5-chloropyridin-2-yl)ethyl)-1H-benzo[d]imidazol-2-yl)-4-fluoropiperidin-3-amine hydrochloride], the IC50 came out at 11.4 nM.
For the compound `C[C@H](c1ccc(Cl)cn1)n1c(N2CC[C@@H](F)[C@H](N)C2)nc2cc(F)c(F)cc21` [Example 217, (3R,4R)-1-(1-((R)-1-(5-chloropyridin-2-yl)ethyl)-5,6-difluoro-1H-benzo[d]imidazol-2-yl)-4-fluoropiperidin-3-amine hydrochloride], the IC50 worked out at 68.7 nM.
For the compound `C[C@@H](c1ccc(Cl)cn1)n1c(N2CC[C@@H](F)[C@H](N)C2)nc2cc(F)c(F)cc21` [Example 218, (3R,4R)-1-(1-((S)-1-(5-chloropyridin-2-yl)ethyl)-5,6-difluoro-1H-benzo[d]imidazol-2-yl)-4-fluoropiperidin-3-amine hydrochloride], the IC50 amounted to 0.82 nM.
